# Measured values reported in patent US11299515B2, “Optimized peptides for targeting human nerves and their use in image guided surgery, diagnostics and therapeutic” (The Regents of the University of California, priority 2017, dated 2022).
# Legend:
# [1] = test system: human sural nerve; test: Topical application of FAM-labelled peptides on human nerve sections; type: binding; conditions: for normalized average signal intensity (normalized to FAM-HNP401): 100 μM FAM labelled, human sural nerve sections; for binding / contrast among peptides and controls screened on human nerve: 100 μM topical, sural nerve and temporalis muscle
# Text: To determine the affinity of phage selected peptides for binding to human nerve they were chemically synthesized by solid-phase synthesis and labeled with fluorescein at the C-terminus via a GGC linker. Peptides were topically applied to sectioned human sural nerve and human temporalis muscle to determine nerve to muscle contrast. […] To confirm binding and contrast of HNP401 for additional nerve types binding was compared in nerve and muscle with both HNP401 and NP41 on facial brachial plexus nerve (FIG. 9). […] FAM-HNP401 was additionally tested topically on ex-vivo tissue for labeling of mouse facial nerve with surrounding muscle (FIG. 10, J-M).
# To test the affinity of selected phage display peptides for binding to human nerves, they were chemically synthesized by solid-phase synthesis and labeled with fluorescein at the C-terminus. Peptides were topically applied to sections of surgically harvested human sural nerve and temporalis muscle to determine nerve to muscle contrast for selected peptides and controls (FIG. 23). […] To quantify differential binding to nerve versus muscle, fluorescence signal intensity was measured for ROIs from the perineurium of select nerves and human temporalis muscle.
# Human sural nerve, antebrachial nerve and laryngeal nerve and temporalis muscle were obtained under IRB protocol number 130837 for Dr. Quyen Nguyen. Human peripheral nerves (typically sural) were obtained from patients undergoing nerve resection procedures. Human nerves from prostate gland of two patients were acquired under Moores Cancer Centre Biorepository IRB protocol number 090401. Tissue were sectioned and mounted on glass slides or Cryojane tape. Tissue sections were placed in a humidifier chamber for 30 min before application of the peptide solution. Peptides were diluted to appropriate concentration in 0.5×HBSS prior to topical application. 50 μl of peptide solution of with known concentration (1 μM to 375 μM) were applied to 10 μm nerve sections on tape or slides and incubated for 30 minutes in a humidifier chamber. After incubation with peptide nerve sections were washed with twice with 0.5×HBSS and once with 1×PBS. A cover-slip was applied and slides were imaged immediately on either a Zeiss Lumar dissecting scope of Nikon A1 confocal microscope. For confocal imaging tissue sections of 10 μm thickness were imaged with 488 nm laser excitation 515 (25) and a 10× air objective and a […] size. For immunohistochemistry the confocal Images were acquired with a 20× air objective at 0.4 μm/pixel.
# Image J was used to analyze and compare images acquired using the confocal microscope and the Lumar dissecting scope. For each experimental set where probes were compared, we kept the acquisition parameters identical so as to directly compare the data obtained. […] All raw image files for a given experimental cohort were loaded at the same time into Image J as 16-bit tiff images. We then levelled the image for tissue treated with FAM-HNP401. Once these levels were set, the settings are propagated to all images in one step using Image J. The brightest image is set as the benchmark for all other images in the cohort to avoid saturating when the leveling is propagated.
# [2] = test system: autonomic nerve within the prostate; test: In-vivo imaging of autonomic nerve within the prostate of rats; conditions: rat prostate cavernosal nerve, live rats
# [3] = test system: sciatic nerve; type: in vivo, mice
# Description: Either 150 or 450 nmoles of fluorescein labeled synthetic peptides were injected intravenously into mice. After a 2 hour waiting period for washout of nonspecific binding, mice were anesthetized and skin incisions were made over the dorsal surface of the hind legs to expose the sciatic nerve. Brightfield and fluorescent images were obtained with a dissecting microscope using Metamorph software (FIG. 1). Quantitation of fluorescence of nerves and adjacent non-nerve tissue was performed with Image J (FIG. 2). Peptides were also topically applied to human nerve sections. Nerves were freshly frozen in OTC prior to sectioning. Peptides were topically applied at concentration at 300 uM with images being shown for HNP401, HNP402, HNP404 and previous reported nerve binding peptides NP41 (FIG. 3)). Also shown are images for variants HNP301 ([…]) and NP124. NP713 was also tested and has not reported in a publication. NP713, is a derivative of NP41 with sequence […] that was enriched after 7 rounds of selection against mouse tissue, and was also found after 4 rounds of selection against human tissue. […] All D-amino acid controls for NP-41 and NP713 and non peptide conjugated carboxyfluorescein, are also shown. […] HNP401 was then tested for labeling of rat sciatic and rat prostate cavernosal nerve in-vivo. […] FIGS. 6 and 7 show in-vivo labeling of rat prostate cavernosal nerve with comparison to white light visualization.
# Following anesthesia with intra-peritoneal injection of ketamine (80 mg/kg) and midazolam (40 mg/kg), FAM-NP41 or its variants were administered into mice retro-orbitally. After a washout period of 2-4 hours, the animals were anesthetized with ketamine (50 mg/ml) and xylazine (20 mg/ml). The bladder and prostate were exposed through a midline abdominal incision. The autonomic nerve along the cavernosal vessel in the prostate was imaged and recorded using a custom-made surgical imaging system. This system is a modified from Olympus MVX10 scope capable of hi-resolution fluorescence, RGB reflectance and realtime overlay with zoom from 0.6 to 5.7 cm field of view. Image) was used for quantitative analysis of nerve contrast for each peptide dye conjugate tested. Images of autonomic nerve in prostate were selected from the recorded files and magnified 300-400% prior to selection of ROI and measurement. Nerves and adjacent non-nerve tissues ROIs were hand-selected using polygonal selection tool at the same location from both of reflectance and fluorescence images. The mean and standard deviation of the pixel intensities within the selected areas were compared for nerves (mean=In, SD=σn) and adjacent background tissue (mean=Ib, SD=σb). Nerve to non-nerve contrast was calculated after background subtraction with formula |In−Ib|/(σn^2+σm^2)^0.5. For imaging the nerves in the prostate gland of male rats peptide dye conjugate were injected retro-orbitally. FAM-HNP401 was injected at a concentration of 13 mgs/kg followed by imaging after 15 minutes or alternatively a dose of 52 mgs/kg was used with imaging after 3 hours. Live animal surgery was performed under a ketamine-xylazine cocktail according to IACUC protocol. Sterile technique was used to expose the prostate; bladder was drained with a small syringe and sutured. The surgical field was washed with sterile saline prior to imaging. Mann-Whitney test was used to analyze data for both mice and rats to compare nerve intensity and nerve to non-nerve contrast between white light reflectance and fluorescence.
# [4] = test system: autonomic nerves within the prostate; test: In-vivo imaging of autonomic nerves within the prostate of mice; conditions: rodent models
# Description: To visualize the autonomic nerves within the prostate of mice, NP41 peptide conjugated to fluorescein (FAM-NP41) was injected intravenously followed by imaging of prostate and surrounding tissue after surgical resection. Strong fluorescence from dye that rapidly accumulates in the bladder hindered visualization of the nerves within the prostate. To enhance visualization the bladder was surgically drained of urine and sutured prior to imaging. The urethra, an anatomically distinct structure, is never emptied of urine as the mice are alive for the duration of the experiment, resulting in a continuous passage of urine carrying metabolized peptide-dye to the bladder […]. […] To quantify nerve detection a total of 10 mice were injected with 600 nmoles FAM-NP41 and signal intensity was measured for nerve versus adjacent non-nerve tissue using both fluorescence and white light reflectance. Values to the right of the line indicate that there is improved visualization with fluorescence compared to reflected light. […]
# Following anesthesia with intra-peritoneal injection of ketamine (80 mg/kg) and midazolam (40 mg/kg), FAM-NP41 or its variants were administered into mice retro-orbitally. […] The autonomic nerve along the cavernosal vessel in the prostate was imaged and recorded using a custom-made surgical imaging system. […]
# [5] = test system: sciatic nerve; conditions: live mice, reference [22]; cited from earlier work
# [6] = Fluorescent plate reader assay of quenching by food dyes
# Text: FIG. 21: Food dyes efficiently quench FAM-NP41 bladder fluorescence. A fluorescent plate reader assay was used to show dose dependent quenching of FAM-NP41 fluorescence. Erythrosine extra bluish (Santa Cruz Biotechnology, Inc.) was the most efficient quencher with >80% quenching at 2.5 times dye to fluorescein ratio and >95% quenching at 5× dye to fluorescein ratio (A). Other food dyes tested included Allura Red and Sunset Yellow. To test for quenching in-vivo we administered, by direct iv injection, 50 mg/kg MW 879.76 (^˜1.5 μmoles per 25 gm mouse) to mice that had been injected with 150 nmoles of FAM-NP41 2 hours prior. This represents approximately a 10× dye to FAM-NP41 dose. Some bladder fluorescence remained after imaging so additional dye (30 μl, 10 mM Erythrosin extra bluish) was injected directly into the bladder. Images are shown for mouse bladder with no dye quencher (B) and addition of Erythrosine extra bluish (intravenous and intra bladder) (C) with bladder fluorescence quench to near background level. Dye would likely not be needed if this method was used for human patients as bladder catheterization in patients could be started as FAM-NP41 is administered so bladder fluorescence could be washed out.
compound,measurement,setting,value
"EEPYYVVKKSS [HNP401-N-6, tested FAM labelled]",normalized average signal intensity (normalized to FAM-HNP401),[1],1.0±0.34
SHSSEFPRSWDMETN [HNP301],contrast for prostate nerve labeling compared to HNP401,[2],not showing as much contrast
"NTQTLAKAPEHT [NP41, reference compound]",contrast (nerve fluorescent intensity/muscle fluorescent intensity),"[3]; 450 nmols, FAM-labelled peptide, living wild type mice, FIG. 2",6.7 fold
same,washout from nerve,"[3]; mouse, in vivo",little remaining signal after 24 hours
same,"average increase in nerve to non-nerve signal, fluorescence vs white light reflectance",[4],17%
same,time to almost complete wash out after systemic injection,[5],≤ 24 h
"PWEEPYYVVKKSS [HNP401-N-4, tested FAM labelled]",normalized average signal intensity (normalized to FAM-HNP401),[1],0.56±0.18
"QVPWEEPYYVVKKSS [HNP401-N-2, tested FAM labelled]",average signal intensity (nerve binding of deletion variants),"[1]; 100 uM FAM labelled, human nerve sections, n=5",1498.73 (+/−517.63)
same,normalized average signal intensity (normalized to FAM-HNP401),[1],2.02±0.65
same,"Normalized nerve to temporalis muscle contrast, increase with respect to FAM-HNP401",[1]; human sural nerve vs temporalis muscle,3 fold
"PYYVVKKSS [HNP401-N-8, tested FAM labelled]",normalized average signal intensity (normalized to FAM-HNP401),[1],0.98±0.31
carboxyfluorescein [reference compound],binding / contrast among peptides and controls screened on human nerve,[1],only weak non-specific binding
same,binding / contrast among peptides and controls screened on human nerve,[1]; listed as Carboxyfluorescein,low signal and non-specific binding
SGQVPWEEPYYVVKK [tested FAM labelled],effect of terminal deletion on binding,[1]; removal of C-terminal serine,tolerated
O.O=C([O-])c1ccccc1-c1c2cc(I)c(=O)c(I)c-2oc2c(I)c([O-])c(I)cc12.[Na+].[Na+] [Erythrosine extra bluish],quenching of FAM-NP41 fluorescence,[6]; 2.5 times dye to fluorescein ratio,> 80%
same,quenching of FAM-NP41 fluorescence,[6]; 5× dye to fluorescein ratio,> 95%
